In ChEMBL document CHEMBL3751662, “Novel quinoline derivatives as potent in vitro -glucosidase inhibitors: in silico studies and SAR predictions” (Medchemcomm, 2015):

Columns and labels:
[1] = target: alpha-glucosidase (Saccharomyces cerevisiae); test: Inhibition of alpha-glucosidase (Saccharomyces cerevisiae) using p-nitrophenyl glucopyranoside as substrate preincubated for 10 mins followed by substrate addition measured after 30 mins by plate reader analysis
[2] = Cytotoxicity against mouse 3T3L1 cells assessed as cell viability at 1 to 20 ug/ml after 48 hrs by MTT assay; type: cell-based; details: 3t3-l1, 48 h
[3] = Cytotoxicity against Wistar rat CC1 cells assessed as cell viability at 1 to 20 ug/ml after 48 hrs by MTT assay; type: cell-based; details: cc-1, 48 h
[4] = tested on: alpha-glucosidase (Saccharomyces cerevisiae); test: Potency index, ratio of acarbose IC50 to compound IC50 for alpha glucosidase (Saccharomyces cerevisiae)

SMILES: Cc1cccc(/C=N/NC(=O)c2ccc(-c3nnc(-c4ccc5ncccc5c4)o3)cc2)c1
- IC50 [1]: 100 µM
- Activity [2]: Non-toxic
- Activity [3]: Non-toxic

SMILES: O=C(N/N=C/c1ccc([N+](=O)[O-])cc1)c1ccc(-c2nnc(-c3ccc4ncccc4c3)o2)cc1
- IC50 [1]: 63.5 µM
- Activity [2]: Non-toxic
- Activity [3]: Non-toxic

SMILES: O=C(N/N=C/c1cc(O)cc(O)c1)c1ccc(-c2nnc(-c3ccc4ncccc4c3)o2)cc1
- IC50 [1]: 37.1 µM
- Activity [2]: Non-toxic
- Activity [3]: Non-toxic

SMILES: O=C(N/N=C/c1ccncc1)c1ccc(-c2nnc(-c3ccc4ncccc4c3)o2)cc1
- inhibition [1]: < 50%
- Activity [2]: Non-toxic
- Activity [3]: Non-toxic

SMILES: O=C(N/N=C/c1cc(O)ccc1O)c1ccc(-c2nnc(-c3ccc4ncccc4c3)o2)cc1
- IC50 [1]: 8.5 µM
- Activity [2]: Non-toxic
- Activity [3]: Non-toxic

SMILES: O=C(N/N=C/c1ccc(O)c(O)c1)c1ccc(-c2nnc(-c3ccc4ncccc4c3)o2)cc1
- IC50 [1]: 2.6 µM
- Ratio IC50 [4]: > 14
- Activity [2]: Non-toxic
- Activity [3]: Non-toxic

SMILES: O=C(N/N=C/c1cccnc1)c1ccc(-c2nnc(-c3ccc4ncccc4c3)o2)cc1
- inhibition [1]: < 50%
- Activity [2]: Non-toxic
- Activity [3]: Non-toxic

SMILES: O=C(N/N=C/c1cccc(Cl)c1)c1ccc(-c2nnc(-c3ccc4ncccc4c3)o2)cc1
- IC50 [1]: 30.2 µM
- Activity [2]: Non-toxic
- Activity [3]: Non-toxic

SMILES: COc1ccc(O)c(/C=N/NC(=O)c2ccc(-c3nnc(-c4ccc5ncccc5c4)o3)cc2)c1
- IC50 [1]: 6.2 µM
- Activity [2]: Non-toxic
- Activity [3]: Non-toxic

SMILES: O=C(N/N=C/c1ccccc1Cl)c1ccc(-c2nnc(-c3ccc4ncccc4c3)o2)cc1
- IC50 [1]: 4.16 µM
- Activity [2]: Non-toxic
- Activity [3]: Non-toxic

SMILES: O=C(N/N=C/c1c(O)cc(O)cc1O)c1ccc(-c2nnc(-c3ccc4ncccc4c3)o2)cc1
- IC50 [1]: 8.12 µM
- Activity [2]: Non-toxic
- Activity [3]: Non-toxic

SMILES: O=C(N/N=C/c1ccc(O)cc1O)c1ccc(-c2nnc(-c3ccc4ncccc4c3)o2)cc1
- IC50 [1]: 8.45 µM
- Activity [2]: Non-toxic
- Activity [3]: Non-toxic

SMILES: Cc1ccccc1/C=N/NC(=O)c1ccc(-c2nnc(-c3ccc4ncccc4c3)o2)cc1
- IC50 [1]: 80.1 µM
- Activity [2]: Non-toxic
- Activity [3]: Non-toxic

SMILES: O=C(N/N=C/c1cccc(O)c1)c1ccc(-c2nnc(-c3ccc4ncccc4c3)o2)cc1
- IC50 [1]: 39.2 µM
- Activity [2]: Non-toxic
- Activity [3]: Non-toxic

SMILES: O=C(N/N=C/c1ccc(Cl)cc1)c1ccc(-c2nnc(-c3ccc4ncccc4c3)o2)cc1
- IC50 [1]: 3.9 µM
- Activity [2]: Non-toxic
- Activity [3]: Non-toxic

SMILES: O=C(N/N=C/c1cccc([N+](=O)[O-])c1)c1ccc(-c2nnc(-c3ccc4ncccc4c3)o2)cc1
- IC50 [1]: 36.5 µM
- Activity [2]: Non-toxic
- Activity [3]: Non-toxic

SMILES: O=C(N/N=C/c1cc(O)c(O)cc1O)c1ccc(-c2nnc(-c3ccc4ncccc4c3)o2)cc1
- IC50 [1]: 2.6 µM
- Ratio IC50 [4]: > 14
- Activity [2]: Non-toxic
- Activity [3]: Non-toxic

SMILES: O=C(N/N=C/c1ccccn1)c1ccc(-c2nnc(-c3ccc4ncccc4c3)o2)cc1
- IC50 [1]: 40.5 µM
- Activity [2]: Non-toxic
- Activity [3]: Non-toxic

SMILES: O=C(N/N=C/c1ccccc1O)c1ccc(-c2nnc(-c3ccc4ncccc4c3)o2)cc1
- IC50 [1]: 2.86 µM
- Ratio IC50 [4]: > 14
- Activity [2]: Non-toxic
- Activity [3]: Non-toxic

SMILES: Cc1ccc(/C=N/NC(=O)c2ccc(-c3nnc(-c4ccc5ncccc5c4)o3)cc2)cc1
- IC50 [1]: 102 µM
- Activity [2]: Non-toxic
- Activity [3]: Non-toxic

SMILES: O=C(N/N=C/c1ccccc1[N+](=O)[O-])c1ccc(-c2nnc(-c3ccc4ncccc4c3)o2)cc1
- IC50 [1]: 15.2 µM
- Activity [2]: Non-toxic
- Activity [3]: Non-toxic

SMILES: COc1ccc(/C=N/NC(=O)c2ccc(-c3nnc(-c4ccc5ncccc5c4)o3)cc2)cc1O
- IC50 [1]: 21.2 µM
- Activity [2]: Non-toxic
- Activity [3]: Non-toxic

SMILES: COc1ccc(/C=N/NC(=O)c2ccc(-c3nnc(-c4ccc5ncccc5c4)o3)cc2)c(O)c1
- IC50 [1]: 9.2 µM
- Activity [2]: Non-toxic
- Activity [3]: Non-toxic

SMILES: O=C(N/N=C/c1ccc(O)cc1)c1ccc(-c2nnc(-c3ccc4ncccc4c3)o2)cc1
- IC50 [1]: 27.2 µM
- Activity [2]: Non-toxic
- Activity [3]: Non-toxic

SMILES: O=C(N/N=C/c1cccc(O)c1O)c1ccc(-c2nnc(-c3ccc4ncccc4c3)o2)cc1
- IC50 [1]: 6.8 µM
- Activity [2]: Non-toxic
- Activity [3]: Non-toxic
